36 compounds from US20230364070A1, “PYRROLO[3,2-C]PYRIDIN-4-ONE DERIVATIVES USEFUL IN THE TREATMENT OF CANCER” (Scorpion Therapeutics, Inc., priority 2020, published 2023) can be followed below.

What is called IC50 is the concentration needed to halve the response being measured.

Structures are written as SMILES.

Common to all, as to type: cell-based
Experiment [1] addresses T1, pEGFR in CUTO14 cells (Homo sapiens, UniProt P00533, DUP767-769).
T1 construct: endogenous in cells; host or cells: CUTO14 cells
In words: Inhibitor activity on EGFR phosphorylation (pEGFR AlphaLISA, 2 h), CUTO14 cells. As for the experimental part: CUTO14 cells were obtained from Dr. Robert C. Doebele at the University of Colorado.
Shake 350 rpm for 1 hr in the dark • 3.4 Prepare donor mix under low light conditions prior to use. Dispense 5 μL of donor mix to all the wells. Mix well on the shaker, seal and wrap in aluminum foil and incubate 1.5 hrs at room temperature in the dark • 3.5 Transfer 18.5 μL mixture to OptiPlate 384, and read using an Envision.

In experiment [2] the target is T2, Ba/F3 cells with EGFR WT (Homo sapiens, UniProt P00533).
T2 construct: expressed in transfected cells; host or cells: Ba/F3 (murine pro-B cells), retroviral transduction, puromycin selection, maintained with EGF
In words: EGFR activity: Ba/F3 cell viability (CellTiter-Glo, 72 h), EGFR WT. To be noted: read-out: BaF3 WT IC50.

Experiment [3] concerns the target T3, Ba/F3 cells with EGFR exon 20 NPG Ins D770_N771 (Homo sapiens, UniProt P00533, INS770NPG).
T3 construct: expressed in transfected cells; host or cells: Ba/F3 (murine pro-B cells), retroviral transduction, puromycin selection, IL3-independent pool
In words: EGFR activity: Ba/F3 cell viability (CellTiter-Glo, 72 h), EGFR exon 20 NPG insertion. To be noted: EGFR exon 20 NPG Ins D770_N771, cell viability, read-out: BaF3 NPG IC50. For orientation: Cellular ATP, detected with luciferase, serves as a proxy for viable cell number.

Experiment [4] has as its target T4, Ba/F3 cells with EGFR exon 20 ASV Ins V769_D770 (Homo sapiens, UniProt P00533, INS769ASV).
T4 construct: expressed in transfected cells; host or cells: Ba/F3 (murine pro-B cells), retroviral transduction, puromycin selection, IL3-independent pool
Nature of the experiment: EGFR activity: Ba/F3 cell viability (CellTiter-Glo, 72 h), EGFR exon 20 ASV insertion. To be noted: EGFR exon 20 ASV Ins V769_D770, cell viability, read-out: BaF3 ASV IC50.

T2 sequence (P00533 25-1210): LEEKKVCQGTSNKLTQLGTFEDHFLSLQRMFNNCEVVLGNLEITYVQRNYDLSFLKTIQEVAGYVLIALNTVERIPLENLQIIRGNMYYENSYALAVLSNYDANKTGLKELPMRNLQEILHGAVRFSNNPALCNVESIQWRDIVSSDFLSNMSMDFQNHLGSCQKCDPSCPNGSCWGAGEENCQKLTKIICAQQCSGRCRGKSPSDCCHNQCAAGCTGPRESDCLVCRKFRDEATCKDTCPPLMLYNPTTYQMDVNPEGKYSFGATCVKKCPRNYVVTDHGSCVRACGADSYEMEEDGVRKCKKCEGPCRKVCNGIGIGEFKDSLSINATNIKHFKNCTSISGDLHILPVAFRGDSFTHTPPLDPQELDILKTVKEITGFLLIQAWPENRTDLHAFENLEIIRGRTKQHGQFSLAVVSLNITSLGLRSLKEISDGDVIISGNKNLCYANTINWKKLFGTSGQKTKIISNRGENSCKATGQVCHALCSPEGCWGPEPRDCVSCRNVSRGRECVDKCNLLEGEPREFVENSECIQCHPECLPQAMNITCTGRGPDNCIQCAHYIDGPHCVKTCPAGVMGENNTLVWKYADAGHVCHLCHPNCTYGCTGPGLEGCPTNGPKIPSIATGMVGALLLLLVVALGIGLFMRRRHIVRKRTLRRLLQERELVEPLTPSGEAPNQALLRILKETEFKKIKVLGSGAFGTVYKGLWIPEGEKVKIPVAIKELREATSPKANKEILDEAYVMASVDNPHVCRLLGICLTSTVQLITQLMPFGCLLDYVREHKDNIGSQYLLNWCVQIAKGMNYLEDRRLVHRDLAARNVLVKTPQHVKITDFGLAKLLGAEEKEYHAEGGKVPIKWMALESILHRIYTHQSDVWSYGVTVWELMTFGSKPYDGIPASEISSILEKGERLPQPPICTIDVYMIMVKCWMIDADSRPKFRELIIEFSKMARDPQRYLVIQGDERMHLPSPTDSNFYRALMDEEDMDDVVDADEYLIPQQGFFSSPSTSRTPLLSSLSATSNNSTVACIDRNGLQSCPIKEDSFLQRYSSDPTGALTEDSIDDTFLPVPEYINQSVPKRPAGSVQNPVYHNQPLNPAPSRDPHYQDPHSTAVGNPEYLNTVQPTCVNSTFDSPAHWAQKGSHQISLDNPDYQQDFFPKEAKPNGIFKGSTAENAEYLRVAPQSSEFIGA
T1 sequence (P00533 with tags, fused parts or gaps DUP767-769): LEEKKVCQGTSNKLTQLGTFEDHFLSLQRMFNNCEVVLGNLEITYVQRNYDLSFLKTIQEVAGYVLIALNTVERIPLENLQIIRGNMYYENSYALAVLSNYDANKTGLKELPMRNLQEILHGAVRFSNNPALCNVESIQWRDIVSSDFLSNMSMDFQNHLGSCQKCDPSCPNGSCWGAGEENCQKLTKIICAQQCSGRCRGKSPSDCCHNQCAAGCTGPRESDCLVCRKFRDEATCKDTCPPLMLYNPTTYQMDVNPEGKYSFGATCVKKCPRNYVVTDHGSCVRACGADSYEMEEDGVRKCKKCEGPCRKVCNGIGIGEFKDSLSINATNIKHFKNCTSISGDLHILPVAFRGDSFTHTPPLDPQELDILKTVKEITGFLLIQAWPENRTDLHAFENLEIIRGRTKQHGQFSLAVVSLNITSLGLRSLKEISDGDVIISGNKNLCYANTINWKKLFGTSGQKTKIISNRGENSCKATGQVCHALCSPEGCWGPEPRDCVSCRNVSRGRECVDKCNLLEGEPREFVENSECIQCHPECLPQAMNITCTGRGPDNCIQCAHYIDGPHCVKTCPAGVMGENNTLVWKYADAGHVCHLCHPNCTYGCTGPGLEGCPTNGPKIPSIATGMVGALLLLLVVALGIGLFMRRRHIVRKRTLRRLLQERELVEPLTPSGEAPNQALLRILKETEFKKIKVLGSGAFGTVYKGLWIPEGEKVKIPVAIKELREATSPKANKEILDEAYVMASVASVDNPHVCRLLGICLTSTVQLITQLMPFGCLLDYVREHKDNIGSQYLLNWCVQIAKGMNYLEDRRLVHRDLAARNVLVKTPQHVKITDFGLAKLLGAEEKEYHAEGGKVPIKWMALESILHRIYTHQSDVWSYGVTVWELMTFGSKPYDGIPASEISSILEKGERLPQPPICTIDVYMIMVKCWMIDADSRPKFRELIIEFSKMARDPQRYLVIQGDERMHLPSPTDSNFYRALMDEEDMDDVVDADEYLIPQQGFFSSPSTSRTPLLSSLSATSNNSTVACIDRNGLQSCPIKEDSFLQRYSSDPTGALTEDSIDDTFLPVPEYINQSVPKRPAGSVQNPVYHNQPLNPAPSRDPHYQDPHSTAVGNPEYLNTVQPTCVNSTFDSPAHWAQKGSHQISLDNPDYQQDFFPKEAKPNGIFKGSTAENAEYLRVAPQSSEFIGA
T4 sequence (P00533 with tags, fused parts or gaps INS769ASV): as the sequence (P00533 with tags, fused parts or gaps DUP767-769) above
T3 sequence (P00533 with tags, fused parts or gaps INS770NPG): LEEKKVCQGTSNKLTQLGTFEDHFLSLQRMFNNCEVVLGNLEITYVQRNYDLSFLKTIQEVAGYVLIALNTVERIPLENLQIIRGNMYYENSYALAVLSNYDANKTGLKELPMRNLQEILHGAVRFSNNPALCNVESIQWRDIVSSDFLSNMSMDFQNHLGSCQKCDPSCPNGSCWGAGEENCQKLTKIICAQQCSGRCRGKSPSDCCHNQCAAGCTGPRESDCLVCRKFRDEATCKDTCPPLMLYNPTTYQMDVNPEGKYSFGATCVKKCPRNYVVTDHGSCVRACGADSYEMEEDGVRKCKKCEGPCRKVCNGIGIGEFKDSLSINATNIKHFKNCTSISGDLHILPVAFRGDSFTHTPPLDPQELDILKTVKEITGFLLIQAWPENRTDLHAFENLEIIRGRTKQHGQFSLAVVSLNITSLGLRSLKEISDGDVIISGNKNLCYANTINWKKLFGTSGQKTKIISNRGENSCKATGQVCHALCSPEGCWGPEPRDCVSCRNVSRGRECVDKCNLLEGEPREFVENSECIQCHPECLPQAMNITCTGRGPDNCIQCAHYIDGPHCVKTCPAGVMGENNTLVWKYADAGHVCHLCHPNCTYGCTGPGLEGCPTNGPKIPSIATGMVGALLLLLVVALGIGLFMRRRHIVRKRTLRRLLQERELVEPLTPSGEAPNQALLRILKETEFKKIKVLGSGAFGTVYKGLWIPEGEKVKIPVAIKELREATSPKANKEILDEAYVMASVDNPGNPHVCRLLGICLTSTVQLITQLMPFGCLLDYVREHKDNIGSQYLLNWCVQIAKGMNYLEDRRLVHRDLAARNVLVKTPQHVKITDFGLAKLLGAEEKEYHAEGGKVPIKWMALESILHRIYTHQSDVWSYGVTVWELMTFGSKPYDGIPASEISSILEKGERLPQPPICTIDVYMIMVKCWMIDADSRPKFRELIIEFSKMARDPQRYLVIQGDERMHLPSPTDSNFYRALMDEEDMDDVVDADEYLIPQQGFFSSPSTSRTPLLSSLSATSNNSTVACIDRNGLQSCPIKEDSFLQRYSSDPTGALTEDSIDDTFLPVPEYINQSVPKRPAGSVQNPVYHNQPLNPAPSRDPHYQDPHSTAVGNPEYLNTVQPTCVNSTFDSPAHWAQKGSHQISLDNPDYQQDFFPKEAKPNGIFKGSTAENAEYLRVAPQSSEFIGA

As to `C=CC(=O)N1[C@@H](COc2cnccc2-c2[nH]c3c(c2Nc2cccc(F)c2OC)C(=O)NCC3)C[C@H]1C` (relative stereo) [compound 332], in experiment [1], the 50% inhibitory concentration (IC50) is less than 0.1 µM.
On the same count and under the same terms, under `C=CC(=O)N1CC(C)(C)C1C#Cc1cnccc1-c1[nH]c2c(c1Nc1cccc(Cl)c1OC)C(=O)NCC2` (single isomer, unassigned) [compound 233] stands less than 0.1 µM.
Still for that read-out and setting: under `C=CC(=O)N1CC(C)(C)C1C#Cc1cnccc1-c1[nH]c2c(c1Nc1cccc(F)c1OC)C(=O)NCC2` (single isomer, unassigned) [compound 249] stands less than 0.1 µM.
The same measure, in the same setting: under `C=CC(=O)NC1(C#Cc2cnccc2-c2[nH]c3c(c2Nc2cccc(Cl)c2OC)C(=O)NCC3)CCOC1` (single isomer, unassigned) [compound 322] stands less than 0.1 µM; under `C=CC(=O)N1CCC1(C)COc1cnccc1-c1[nH]c2c(c1Nc1cccc(F)c1CC)C(=O)NCC2` (single isomer, unassigned) [compound 359], less than 0.1 µM.
With `C=CC(=O)N1CCC1(C)COc1cnccc1-c1[nH]c2c(c1Nc1cccc(Cl)c1OC)C(=O)NCC2` (single isomer, unassigned) [compound 511], the IC50 in experiment [1] was less than 0.1 µM.
In the case of `C=CC(=O)N1CC(C)(C)C1COc1cnccc1-c1[nH]c2c(c1Nc1cccc(Cl)c1OC)C(=O)NCC2` (single isomer, unassigned) [compound 513], the IC50 in experiment [1] was less than 0.1 µM.
Still for that read-out and setting: the result for `C=CC(=O)NC1(C#Cc2cnccc2-c2[nH]c3c(c2Nc2cccc(F)c2OC)C(=O)NCC3)CC1` [compound 206, N-{1-[2-(4-{3-[(3-fluoro-2-methoxyphenyl)amino]-4-oxo-1H,5H,6H,7H-pyrrolo[3,2-c]pyridin-2-yl}pyridin-3-yl)ethynyl]cyclopropyl}prop-2-enamide] reads less than 0.1 µM; that for `Cc1c(F)cccc1Nc1c(-c2ccncc2OC[C@@H]2CCCN2C(=O)/C=C/CN(C)C)[nH]c2c1C(=O)NCC2` [compound 217, 2-(3-{[(2S)-1-[(2E)-4-(dimethylamino)but-2-enoyl]pyrrolidin-2-yl]methoxy}pyridin-4-yl)-3-[(3-fluoro-2-methylphenyl)amino]-1H,5H,6H,7H-pyrrolo[3,2-c] pyridin-4-one], less than 0.1 µM.
For `C=CC(=O)N1CC[C@@H]1[C@H](C)Oc1cnccc1-c1[nH]c2c(c1Nc1cccc(F)c1OC)C(=O)NCC2` [compound 310, 3-[(3-fluoro-2-methoxyphenyl)amino]-2-{3-[(1S)-1-[(2R)-1-(prop-2-enoyl)azetidin-2-yl]ethoxy]pyridin-4-yl}-1H,5H,6H,7H-pyrrolo[3,2-c]pyridin-4-one], the IC50 is more than 1 µM in experiment [2], 0.1 to 1 µM in experiment [3] and 0.1 to 1 µM in experiment [4].
On to `CC#CC(=O)N1CC[C@H]1C#Cc1cnccc1-c1[nH]c2c(c1Nc1cccc(Cl)c1OC)C(=O)NCC2` [compound 371], for which the IC50 was 0.1 to 1 µM in experiment [2], less than 0.1 µM in experiment [3] and less than 0.1 µM in experiment [4].
Regarding `CC#CC(=O)N1CC[C@@H]1C#Cc1cnccc1-c1[nH]c2c(c1Nc1cccc(Cl)c1OC)C(=O)NCC2` [compound 372], the concentration for half-maximal inhibition (IC50) in experiment [2] was 0.1 to 1 µM; in experiment [3], less than 0.1 µM; in experiment [4], less than 0.1 µM.
Take `C=CC(=O)NC1(C#Cc2cnccc2-c2[nH]c3c(c2Nc2cccc(F)c2OC)C(=O)NCC3)CC2(COC2)C1` [compound 402]: the half-maximal inhibitory concentration (IC50) in experiment [2] is more than 1 µM; in experiment [3], 0.1 to 1 µM; in experiment [4], 0.1 to 1 µM.
For the compound `C=CC(=O)NC1(C#Cc2cnccc2-c2[nH]c3c(c2Nc2cccc(Cl)c2OC)C(=O)NCC3)CN(C)C1` [compound 410], the values for the half-inhibitory concentration (IC50) in experiment [2], in experiment [3] and in experiment [4] were more than 1 µM, less than 0.1 µM and 0.1 to 1 µM, respectively.
For `C=CC(=O)NC(C)(C)C#Cc1cnccc1-c1[nH]c2c(c1Nc1cc(F)cc(Cl)c1OC)C(=O)NCC2` [compound 428], the results for the 50% inhibitory concentration (IC50) in experiment [2], in experiment [3] and in experiment [4] were 0.1 to 1 µM, less than 0.1 µM and less than 0.1 µM, respectively.
Regarding `COc1c(Cl)cc(F)cc1Nc1c(-c2ccncc2C#C[C@@]2(C)CCCN2C(=O)C#CCN(C)C)[nH]c2c1C(=O)NCC2` [compound 432], the IC50 in experiment [2] was 0.1 to 1 µM; in experiment [3] it was less than 0.1 µM; in experiment [4], less than 0.1 µM.
With `COc1c(Cl)cc(F)cc1Nc1c(-c2ccncc2C#CC23CC(CN2C(=O)/C=C/CN(C)C)C3)[nH]c2c1C(=O)NCC2` [compound 438], the IC50 in experiment [2] was 0.1 to 1 µM; in experiment [3] it was less than 0.1 µM; in experiment [4] it was less than 0.1 µM.
In the case of `C=CC(=O)NC1(C#Cc2cnccc2-c2[nH]c3c(c2Nc2cccc(Cl)c2OC)C(=O)NCC3)CNC1` [compound 455], the half-maximal inhibitory concentration (IC50) in experiment [2], in experiment [3] and in experiment [4] was more than 1 µM throughout.
Take `COc1c(F)cccc1Nc1c(-c2ccncc2C#C[C@@]2(C)COCCN2C(=O)/C=C/CN(C)C)[nH]c2c1C(=O)NCC2` [compound 459]: the 50% inhibitory concentration (IC50) in experiment [2] is more than 1 µM; in experiment [3], less than 0.1 µM; in experiment [4] it was less than 0.1 µM.
Turning to `C=CC(=O)N1CCOC[C@]1(C)C#Cc1cnccc1-c1[nH]c2c(c1Nc1cccc(F)c1OC)C(=O)NCC2` [compound 460], the IC50 in experiment [2] was 0.1 to 1 µM; in experiment [3], less than 0.1 µM; in experiment [4], less than 0.1 µM.
Turning to `C=CC(=O)N1CCOC[C@]1(C)C#Cc1cnccc1-c1[nH]c2c(c1Nc1cccc(Cl)c1OC)C(=O)NCC2` [compound 461], the IC50 in experiment [2] is 0.1 to 1 µM; in experiment [3] it was less than 0.1 µM; in experiment [4] it was less than 0.1 µM.
With `COc1c(Cl)cccc1Nc1c(-c2ccncc2C#C[C@H]2CN(C)CCO2)[nH]c2c1C(=O)NCC2` [compound 495], the IC50 is 0.1 to 1 µM in experiment [2], less than 0.1 µM in experiment [3] and less than 0.1 µM in experiment [4].
Turning to `Cc1c(F)cccc1Nc1c(-c2ccncc2C#CC(C)(C)C)[nH]c2c1C(=O)NCC2` [compound 499], the IC50 was more than 1 µM in experiment [2], less than 0.1 µM in experiment [3] and less than 0.1 µM in experiment [4].
Consider `COc1c(Cl)cccc1Nc1c(-c2ccncc2C#CC2CCCC2)[nH]c2c1C(=O)NCC2` [compound 526], for which the IC50 in experiment [2] was 0.1 to 1 µM; in experiment [3], less than 0.1 µM; in experiment [4], less than 0.1 µM.
As to `C=C(CN(C)C)C(=O)NC(C)(C)C#Cc1cnccc1-c1[nH]c2c(c1Nc1cccc(Cl)c1OC)C(=O)NCC2` [compound 574], the 50% inhibitory concentration (IC50) in experiment [2], in experiment [3] and in experiment [4] was less than 0.1 µM each time.
As to `C=C(CN(C)C)C(=O)NC(C)(C)C#Cc1cnccc1-c1[nH]c2c(c1Nc1cccc(F)c1OC)C(=O)NCC2` [compound 575], the IC50 in experiment [2], in experiment [3] and in experiment [4] was less than 0.1 µM each time.
Turning to `C=CC(=O)N[C@H](C#Cc1cnccc1-c1[nH]c2c(c1Nc1cccc(Cl)c1OC)C(=O)NCC2)CC` [compound 581], the figures for the IC50 in experiment [2], in experiment [3] and in experiment [4] were 0.1 to 1 µM, less than 0.1 µM and less than 0.1 µM, respectively.
`C=CC(=O)N[C@@H](C#Cc1cnccc1-c1[nH]c2c(c1Nc1cccc(Cl)c1OC)C(=O)NCC2)CC` [compound 582]: the IC50 in experiment [2] is more than 1 µM; in experiment [3], less than 0.1 µM; in experiment [4] it was less than 0.1 µM.
Regarding `COc1c(F)cccc1Nc1c(-c2ccncc2C#C[C@H]2CCN2C(=O)/C=C/CN(C)C)[nH]c2c1C(=O)NCC2` [compound 593], the results for the half-maximal inhibitory concentration (IC50) in experiment [2], in experiment [3] and in experiment [4] were 0.1 to 1 µM, less than 0.1 µM and less than 0.1 µM, respectively.
Take `COc1c(F)cccc1Nc1c(-c2ccncc2C#C[C@@H]2CCN2C(=O)/C=C/CN(C)C)[nH]c2c1C(=O)NCC2` [compound 594]: the half-maximal inhibitory concentration (IC50) in experiment [2] is more than 1 µM; in experiment [3] it was less than 0.1 µM; in experiment [4], less than 0.1 µM.
For `COc1c(Cl)cccc1Nc1c(-c2ccncc2C#C[C@@]2(C)CCCN2C(=O)/C=C/CNC2COC2)[nH]c2c1C(=O)NCC2` [compound 595], the half-maximal inhibitory concentration (IC50) in experiment [2] was more than 1 µM; in experiment [3], less than 0.1 µM; in experiment [4], 0.1 to 1 µM.
The like results for `COc1c(Cl)cccc1Nc1c(-c2ccncc2C#C[C@@]2(C)CCCN2C(=O)/C=C/CN2CC(F)(F)C2)[nH]c2c1C(=O)NCC2` [compound 603] were, in that order, more than 1 µM, 0.1 to 1 µM and 0.1 to 1 µM.
The like results for `CC#CC(=O)N1CC[C@@H]1COc1cnccc1-c1[nH]c2cc[nH]c(=O)c2c1Nc1cccc(Cl)c1OC` [compound 630] were, in that order, more than 1 µM, less than 0.1 µM and less than 0.1 µM.
The like results for `COc1c(F)cccc1Nc1c(-c2ccncc2C#C[C@]2(C)COCCN2C(=O)/C=C/CN(C)C)[nH]c2c1C(=O)NCC2` [compound 631] were, in that order, 0.1 to 1 µM, less than 0.1 µM and less than 0.1 µM.
As to `C=CC(=O)N1CCOC[C@@]1(C)C#Cc1cnccc1-c1[nH]c2c(c1Nc1cccc(F)c1OC)C(=O)NCC2` [compound 632], the half-inhibitory concentration (IC50) was 0.1 to 1 µM in experiment [2], less than 0.1 µM in experiment [3] and less than 0.1 µM in experiment [4].
As for `C=CC(=O)N1CCOC[C@@]1(C)C#Cc1cnccc1-c1[nH]c2c(c1Nc1cccc(Cl)c1OC)C(=O)NCC2` [compound 634], the concentration for half-maximal inhibition (IC50) in experiment [2] was 0.1 to 1 µM; in experiment [3], less than 0.1 µM; in experiment [4], less than 0.1 µM.
